# Measured values reported in ChEMBL document CHEMBL1201862, “PubChem BioAssay data set” (2004).
# Activity calls are given as the source filed them.
# What was measured:
# [1] = non-specific 3'UTR reporter inhibition in Clone20-Shn3RL – cell-based, Renilla luciferase, cherry-picked, counter-screen for Shn3 inhibitor project, dose response (AID 624133); format: functional
# [2] = Shn3 3'UTR reporter signal decrease – cell-based, Clone20 osteoblasts, firefly luciferase, cherry-pick, set 2, Schnurri-3 inhibitor project, dose response (AID 720490); format: functional;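 also: actives lower the luminescence signal as inhibitors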
# [3] = reduction of Shn3 3'UTR-driven luciferase in osteoblasts – cell-based, Clone20 osteoblasts, firefly luciferase, cherry-picked, dose response (AID 624132); format: functional;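 also: firefly luciferase luminescence from reporter carrying the Shn3 3'UTR in osteoblasts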
# [4] = target: Cytochrome P450 2D6 (Homo sapiens, UniProt P10635);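 also: CYP2D6 member of a cytochrome P450 panel assay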
# [5] = target: Cytochrome P450 2C9 (Homo sapiens, UniProt P11712)
# [6] = system: INS1; test: INS-1E survival protection against cytokine death – cell-based, luminescence, retest, dose response (AID 449756); format: functional; conditions: Rattus norvegicus;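 also: cell death triggered by IL-1 beta plus TNF-alpha plus IFN-gamma mixture; protective hits raise ATP signal compared with cytokine alone wells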
# [7] = loss of viability in HepG2 cells – cell-based, CellTiter-Glo, cherry-picked, cytotoxicity control for Shn3 inhibitor project, dose response (AID 624134); format: functional
# [8] = cells; conditions: A549
# [9] = viability loss in HepG2 liver cells – cell-based, ATP luminescence, cherry-pick, set 6, cytotoxicity control, dose response (AID 1053125); format: functional
# [10] = cells; conditions: HEK293
# [11] = target: T1, Heat shock factor protein 1 (Mus musculus, UniProt P38532); test: enhancement of HSF1-driven luciferase signal – cell-based, NIH3T3, luminescence, dose retest, confirmation (AID 435004); format: functional;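 also: stress induced by proteasome inhibitor MG132 added 30 min after compound; luciferase reporter driven by HSF1 response element in NIH3T3 cells; actives raise luminescence as potentiators of the MG132 stress response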
# T1 sequence (P38532 whole entry): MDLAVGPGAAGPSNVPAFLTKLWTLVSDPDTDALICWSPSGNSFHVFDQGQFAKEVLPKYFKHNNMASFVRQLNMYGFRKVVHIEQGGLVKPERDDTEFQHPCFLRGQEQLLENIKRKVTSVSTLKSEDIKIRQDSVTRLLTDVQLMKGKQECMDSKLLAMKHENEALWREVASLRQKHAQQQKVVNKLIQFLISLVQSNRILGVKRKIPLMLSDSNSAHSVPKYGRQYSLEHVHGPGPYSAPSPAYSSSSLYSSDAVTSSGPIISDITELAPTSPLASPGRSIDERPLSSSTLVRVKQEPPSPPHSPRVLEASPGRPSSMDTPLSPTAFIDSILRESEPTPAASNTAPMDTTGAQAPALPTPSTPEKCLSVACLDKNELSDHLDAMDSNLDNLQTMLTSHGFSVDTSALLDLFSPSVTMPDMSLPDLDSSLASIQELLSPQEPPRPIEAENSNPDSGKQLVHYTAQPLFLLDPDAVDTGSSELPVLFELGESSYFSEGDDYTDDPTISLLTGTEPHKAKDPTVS
# [12] = NIH-3T3 fibroblast cytotoxicity, dose response, cytotoxicity control, cell-based, fluorescence, Alamar Blue, secondary assay (AID 2327); format: functional;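 also: NIH-3T3 mouse fibroblasts cultured with fluconazole at 8 µg/mL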
# [13] = fluconazole-exposed Candida albicans growth modulators – fluorescence, retest, confirmation (AID 2467); format: functional, cell-based
# [14] = viability of uninfected HEp-2 cells – cell-based, HTS, cytotoxicity control for RSV inhibitor project, dose response (AID 2410); format: functional; conditions: human respiratory syncytial virus
# [15] = target: Albumin (Bos taurus, UniProt P02769); test: Counterscreen for inhibitors of T-cell receptor (TCR)-CD3 interaction: Fluorescence-based biochemical high throughput dose response assay to identify inhibitors of T-cell receptor (TCR)-CD3 interaction using a TAMRA-labeled BSA probe.; format: functional
# [16] = Luminescence Cell-Based Dose Retest to Confirm Inhibitors of Cancer Stem Cells. [Related pubchem assays (depositor defined):AID2717, AID2721]; format: functional; conditions: Homo sapiens
# [17] = system: HEK293; test: cells; format: functional, cell-based; conditions: Homo sapiens
# [18] = system: HEK293; test: NOD2 signaling inhibitors in MDP-stimulated cells, cell-based, uHTS, luminescence (AID 2001); format: functional; conditions: Homo sapiens
# [19] = system: HEK293; test: cells; format: functional, cell-based; conditions: Homo sapiens; remark: listed apart in the source
# [20] = system: HEK293; test: inhibition of NOD1-driven NF-kB reporter – cell-based, luminescence, uHTS, primary screen (AID 1578); format: functional; conditions: Homo sapiens
# [21] = target: COUP transcription factor 2 (Homo sapiens, UniProt P24468); test: Luminescence-based cell-based high throughput dose response assay to identify inhibitors of COUP-TFII (NR2F2).; format: functional;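 also: HEK293 cells transiently cotransfected with COUP-TFII expression vector and reporter; luciferase reporter luminescence driven by COUP-TFII from the pX2-168 reporter plasmid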
# [22] = viability loss in THP-1 monocytes – THP-1 cells, cytotoxicity control for Vif-APOBEC3G degradation inhibitor project, dose response (AID 1117359); format: functional; conditions: THP-1
# [23] = target: T2, Caspase-6 (Homo sapiens, UniProt P55212); test: inhibition of CASP6 peptide cleavage – biochemical, VEID-R110 fluorescence, cherry-pick, dose response (AID 720632)
# T2 sequence (P55212 whole entry): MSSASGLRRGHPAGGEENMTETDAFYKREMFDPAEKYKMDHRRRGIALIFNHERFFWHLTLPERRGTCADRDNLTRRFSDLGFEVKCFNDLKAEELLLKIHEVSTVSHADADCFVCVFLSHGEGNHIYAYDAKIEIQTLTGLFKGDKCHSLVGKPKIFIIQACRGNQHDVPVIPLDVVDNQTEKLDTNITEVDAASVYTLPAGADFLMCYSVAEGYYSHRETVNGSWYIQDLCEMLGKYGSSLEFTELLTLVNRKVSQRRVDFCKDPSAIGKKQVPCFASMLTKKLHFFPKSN
# [24] = target: Histone-lysine N-methyltransferase NSD2 (Homo sapiens, UniProt O96028); format: biochemical
# [25] = system: H9c2; test: cells; format: functional, cell-based; conditions: Rattus norvegicus, H9c2, Myocardium;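 also: confirmatory concentration-response retest of ultra-high-throughput screening hits for modulation of myocardial damage; cell death induced by hydrogen peroxide oxidative stress; compound pretreatment for 60 min then peroxide exposure for 2 h; potency is for protecting the cells against peroxide damage rather than for killing them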
# [26] = target: Glucose-6-phosphate 1-dehydrogenase (Homo sapiens, UniProt P11413); test: inhibition of Homo sapiens G6PD, dose series – biochemical, fluorescence, selectivity assay for P. falciparum G6PD inhibitor project, dose response (AID 504792); format: functional
# [27] = target: DNA (cytosine-5)-methyltransferase 1 (Homo sapiens, UniProt P26358); test: inhibition of DNA methylation by DNMT1 – biochemical, fluorescent molecular beacon, confirmation (AID 602386); format: functional
# [28] = target: Major prion protein (Homo sapiens, UniProt P04156); format: functional, cell-based
# [29] = cells
smiles,measurement,setting,value
Cc1ccc2c(c1)nnn2C1CCN(S(=O)(=O)c2ccc(C(=O)N3C(C)CCCC3C)cc2)CC1 (stereo not given),AC50,[1],11.4 µM (active)
same,AC50,[2],1.29 µM (active)
same,AC50,[3],0.695 µM (active)
same,AC50,[4],0.158 µM (inconclusive)
same,AC50,[5],15.8 µM (inconclusive)
same,AC50,[6],4.53 µM (active)
same,AC50,[7],60.8 µM (active)
N#CC(C#N)=C1C=CC=CN1/C(=C\c1ccccc1)C(=O)c1cccs1,AC50,[8],> 52 µM (inactive)
same,AC50,[9],49.7 µM (active)
same,AC50,[10],22.1 µM (active)
same,EC50,[11],4.04 µM (active)
same,EC50,[12],14.3 µM (active)
same,EC50,[13],> 38 µM (not active)
same,CC50,[14],21.6 µM (active)
CNC(=S)NNC(=O)c1cccn(Cc2ccc(Cl)cc2Cl)c1=O,IC50,[15],> 94.1 µM (inactive)
Fc1ccc2[nH]c3c(N4CCc5ccccc5C4)ncnc3c2c1,AC50,[1],24.1 µM (active)
same,AC50,[16],13.8 µM (active)
same,AC50,[3],0.466 µM (active)
same,IC50,[17],1.51 µM (active)
same,IC50,[18],1.27 µM (active)
same,IC50,[19],12.4 µM (active)
same,EC50,[20],3.14 µM (active)
same,IC50,[21],5.24 µM (active)
same,CC50,[22],> 40 µM (active)
same,AC50,[7],3.91 µM (active)
CCC(CO)NC(=O)C1C=C2c3cccc4[nH]cc(c34)CC2N(C)C1 (stereo not given),AC50,[23],27.3 µM (active)
Nc1ncc(-c2ccccc2)n1CC1CCCO1 (stereo not given),AC50,[24],> 20 µM (inactive)
same,IC50,[25],> 79 µM (inactive)
same,AC50,[5],14.1 µM (inconclusive)
COC1=C(N)C(=O)c2nc(C)ccc2C1=O,AC50,[24],0.61 µM (active)
same,IC50,[26],59.6 µM (inactive)
same,CC50,[22],20.8 µM (active)
same,IC50,[27],4.94 µM (active)
CCc1nonc1NC(=O)c1oc2cc(Br)ccc2c1C,IC50,[28],3.55 µM (active)
same,IC50,[29],> 138 µM (inactive)
